Experimental data taken from article PMC2717937 (Journal of Experimental & Clinical Cancer Research : CR, 2009).
Where a name gives a salt, the structure may show the parent alone. Read-outs that look alike come from different tables or passages of the source.

What was measured:
[1] = vehicle 30 min before, listed as Imatinib alone
[2] = oral; cited from earlier work
[3] = imatinib 50 mg/kg oral, vehicle 30 min before
[4] = in vivo; details: Balb/C, mouse, brain, po, 50 mg/kg
[5] = in vivo; details: Balb/C, mouse, plasma, po, 50 mg/kg
[6] = imatinib 50 mg/kg oral, vehicle 30 min before; remark: listed apart in the source
[7] = in vivo; details: Balb/C, mouse, liver, po, 50 mg/kg
[8] = system: ABCB1 in CD56+ lymphocytes; details: healthy volunteers, tariquidar 2 mg/kg i.v. or ≥ 200 mg orally; cited from earlier work
[9] = system: drug efflux; parameters: method as in PMID 11212278; details: cited from earlier work
[10] = elacridar with imatinib 12.5 mg/kg vs imatinib alone; cited from earlier work
[11] = listed as imatinib plus vehicle

SMILES: Cc1ccc(NC(=O)c2ccc(CN3CCN(C)CC3)cc2)cc1Nc1nccc(-c2cccnc2)n1 [Imatinib, Imatinib mesylate]
- Plasma Cmax ([1]; imatinib 50 mg/kg oral gavage, mean, n = 3 per time point): 5,710.5 ng/mL
- Plasma AUC0–24 ([1]; imatinib 50 mg/kg oral): 12,167.5 hr*ng/mL
- Bioavailability [2]: approximately 98%
- Liver AUC0–24 [3]: 68,330.8 hr*ng/g
- Liver AUC0–24 (text) [3]: 68,331 hr*ng/mL
- Liver Cmax ([3]; listed as Imatinib alone): 26,279.7 ng/g
- Liver Cmax [3, 11]: 26,280 ng/g
- Tmax [4]: 120 min
- Tmax [5]: 10.2 min
- AUC(0-t) ([5]; Plasma AUC0–24, imatinib 50 mg/kg oral, vehicle 30 min before): 12200 ng·h/mL
- Cmax ([5]; Plasma Cmax, imatinib 50 mg/kg oral gavage, vehicle 30 min before, mean, n = 3 per time point): 5710 ng/mL
- Brain AUC0–4 [6]: 574.23 ng·h/g
- Brain Cmax (corrected for brain vascular space) ([6]; listed as Imatinib alone): 194.7 ng/g
- Brain Cmax (corrected for brain vascular space) [6, 11]: 195 ng/g
- Tmax [7]: 15 min

SMILES: COc1cc2c(cc1OC)CN(CCc1ccc(NC(=O)c3cc(OC)c(OC)cc3NC(=O)c3cnc4ccccc4c3)cc1)CC2 [Tariquidar]
- Duration of 100% inhibition of ABCB1 in CD56+ lymphocytes [8]: over 24 hours
- Inhibition of ABCB1 in CD56+ lymphocytes [8]: 100%
- Persistence of inhibitory effect on drug efflux in vitro [9]: persists for over two hours

SMILES: COc1cc2c(cc1OC)CN(CCc1ccc(NC(=O)c3cccc4c(=O)c5cccc(OC)c5[nH]c34)cc1)CC2 [elacridar]
- Fold increase in brain-to-plasma concentration ratio of imatinib [10]: 9.3 fold
